According to patent publication US4153695A, “Substituted 2,3-dihydro imidazo[1,2-c]pyrimidines” (priority 1978, dated 1979):
“And” between values parts separate entries of the source, which are not always exact repeats. Identical values can stand only once. Counter-ions that a name gives are not always drawn. Like-named read-outs stand apart in the source and are kept apart here.

Assays:
Herpes simplex virus = assay: In vitro plaque inhibition of Herpes simplex virus in BSC-1 or Hela cells (Table 3); type: cell-based; conditions: for inhibition at 3 µg/mL: read-out: PERCENT INHIBITION OF PLAQUES AT 3 mcg/ml; for inhibition at 6 µg/mL: read-out: PERCENT INHIBITION OF PLAQUES AT 6 mcg/ml; for inhibition at 12 µg/mL: read-out: PERCENT INHIBITION OF PLAQUES AT 12 mcg/ml; for inhibition at 25 µg/mL: read-out: PERCENT INHIBITION OF PLAQUES AT 25 mcg/ml; for inhibition at 50 µg/mL / PERCENT INHIBITION OF PLAQUES AT 50 mcg/ml: 50 mcg/ml; for inhibition at 50 µg/mL: read-out: PERCENT INHIBITION OF PLAQUES AT 50 mcg/ml; for inhibition at 100 µg/mL: 100 mcg/ml, read-out: PERCENT INHIBITION OF PLAQUES AT 100 mcg/ml
Procedure: The compounds of this invention also have anti-viral activity in vitro against Herpes simplex virus.
African green monkey kidney cells (BSC-1) or Hela cells (5-3) were grown in 25 cc. Falcon flasks at 37° C. in medium 199 with 5 percent inactivated fetal bovine serum (FBS), penicillin (150 units 1 ml.) and streptomycin (150 mcg./ml.). When confluent monolayers were formed, the supernatant growth medium was removed and 0.3 ml. of an appropriate dilution of Herpes simplex virus was added to each flask. After adsorption for one hour at room temperature, the virus infected cell sheet was overlaid with a medium comprising one part of 1 percent Ionagar No. 2 and one part double strength medium 199 with FCS, (fetal calf serum) penicillin, and streptomycin and also containing drug at concentrations of 100, 50, 25, 12, 6 and 3 micrograms per milliliter (mcg./ml.). The flask containing no drug served as a control. The stock solutions of 2,3-dihydroimidazo[1,2-c]pyrimidine compounds were made up in dimethylsulfoxide dilution at a concentration of 10^4 mcg./ml. The flasks were incubated for 72 hours at 37° C. […] A solution of 10 percent formalin and 2 percent sodium acetate was added to each flask to inactivate the virus and fix the cell sheet to the surface of the flask. The virus plaques, irrespective of size, were counted after staining the surrounding cell areas with crystal violet. The plaque count was compared to the control count at each drug concentration. The activity of the test compound was expressed as percentage plaque inhibition. Table 3, which follows, embodies the results of these determinations. In the table, column 1 gives the name of the compound, columns 2 through 6, the percent inhibition of herpes simplex plaques at various mcg./ml. levels of drug.

[1] = test system: Herpes simplex virus type I and Herpes simplex virus type II; assay: Intravaginal treatment of Herpes simplex virus type I and type II infection in guinea pigs, final score (Table 2); type: in vivo
Procedure: A second in-vivo test against Herpes simplex virus type I and Herpes simplex virus type II was carried out as follows. Guinea pigs were inoculated intravaginally by swabing the vagina with an absorbent cotton swab containing 2×10^4 plaque forming units of the virus. Prior to the inoculation with the virus, the vagina was swabbed with physiological saline to remove potential virus inhibitors. Treatment was started four hours after inoculation and continued for four days. The drug in a suitable base was introduced into the vaginal area also with an absorbent cotton swab. Controls in which the vehicle only were swabbed were included. Beginning on day 5 after inoculation and continuing through day 10, each animal was examined and scored from 0 to 4+ for secretion, inflammation, vesiculation and necrosis, thus yielding a possible top score of +16 per guinea pig. In the table, column 1 gives the name of the compound; column 2, the vehicle; column 3, the concentration; column 4, the number of animals used; and columns 5, the final score.

[2] = test system: cutaneous Herpes simplex virus type 1; assay: Topical treatment of cutaneous Herpes simplex virus type 1 lesions on guinea pig back, final score (Table 1); type: in vivo, guinea pigs; conditions: lesions scored 0 to 4+
Procedure: Three epilated areas on each guinea pig back were inoculated with approximately 1×10^5 plaque forming units of virus using a Sterneedle triggered 10 times for each area. Untreated guinea pigs so inoculated developed consistent rosette lesions in about 96 hours. All three areas on the back of each guinea pig were drug-treated and these compared with separate control animals which were treated with the particular vehicle employed for administering the drug. The positive control animals were treated with 0.5-1.0 percent phosphonoacetic acid (PAA) suspended in the same vehicle as the drug. Animals were inoculated on the morning of day 1 and treated on the afternoon of day 1. Two treatments per day were administered through day 5 for a total of 10 treatments. Hair was again epilated on day 5 and readings were begun then and taken daily through day 10. Lesions for each area were scored from 0 to 4+, which was a fully developed herpatic lesion with inflammation vesicles and pustules. An average score was then calculated for each drug for each day for the number of treated areas and control areas. Usually 3-6 guinea pigs were used per drug. After scoring, a final score or mean of means was calculated for drug-treated and for control areas. Table I which follows gives the results of determinations carried out as outlined above on compounds coming within the scope of this invention. In the table, column 1 gives the name of the drugs, column 2, the vehicle, column 3, the concentration; column 4, the number of animals used; and columns 5, the final score.

[3] = 72 h, 6 mcg/ml, 72 hours at 37° C.
[4] = 72 h, 12 mcg/ml, 72 hours at 37° C.
[5] = 72 h, 25 mcg/ml, 72 hours at 37° C.
[6] = 72 h, 3 mcg/ml, 72 hours at 37° C.
[7] = vehicle R, 2.5 % conc., top score +16
[8] = 72 hours at 37° C., hydrochloride
[9] = 25 mcg/ml, 72 hours at 37° C., hydrochloride

With `CSC1=NC(Cl)=CC2=NCC(c3ccccc3)N21` (racemic) [dl-3-phenyl-5-methylthio-7-chloro-2,3-dihydroimidazo[1,2-c]pyrimidine hydrochloride] the inhibition at 3 µg/mL (Herpes simplex virus; 3 mcg/ml, high virus input (HV)) was 23%, the inhibition at 3 µg/mL (Herpes simplex virus; 3 mcg/ml, low virus input (LV)) was 57% and the inhibition at 6 µg/mL (Herpes simplex virus; 6 mcg/ml, high virus input (HV)) was 84%. It also gave an inhibition at 6 µg/mL (Herpes simplex virus; 6 mcg/ml, low virus input (LV)) of 100%.

For `CC1=NC(N(C)Cc2ccccc2)=CC2=NCCN12` [N,5-dimethyl-7-benzylamino-2,3-dihydroimidazo[1,2-c]pyrimidine hydrochloride], the inhibition at 6 µg/mL (Herpes simplex virus; [3]) was 0%, the inhibition at 12 µg/mL (Herpes simplex virus; [4]) was 0% and the inhibition at 25 µg/mL (Herpes simplex virus; [5]) was 0%. The inhibition at 50 µg/mL (Herpes simplex virus; 72 h, 72 hours at 37° C.) was 0% and the inhibition at 100 µg/mL (Herpes simplex virus; 72 h, 72 hours at 37° C.) was 9%.

Compound `NC1=NC(Cl)=CC2=NCCN12` [5-Amino-7-chloro-2,3-dihydroimidazo[1,2-c]pyrimidine hydrochloride] has an inhibition at 3 µg/mL (Herpes simplex virus; [6]) of 0%, an inhibition at 6 µg/mL (Herpes simplex virus; [3]) of 0% and an inhibition at 12 µg/mL (Herpes simplex virus; [4]) of 0%. It also gave an inhibition at 25 µg/mL (Herpes simplex virus; [5]) of 0%, an inhibition at 50 µg/mL (Herpes simplex virus; 72 h, 72 hours at 37° C.) of 0% and an inhibition at 100 µg/mL (Herpes simplex virus; 72 h, 72 hours at 37° C.) of 11%.

`Cl.O=[N+]([O-])C1=C(NCCCl)N=CN2CCN=C12` [7-(β-chloroethylamino)-8-nitro-2,3-dihydroimidazo[1,2-c]pyrimidine hydrochloride] was tested, and the “Final Score” value [1, 7] was 1.25, the inhibition at 6 µg/mL (Herpes simplex virus; 72 h) was 33% and the inhibition at 12 µg/mL (Herpes simplex virus; 72 h) was 41%. It also gave an inhibition at 25 µg/mL (Herpes simplex virus; 72 h) of 68%.

With `CC1=NC(Cl)=CC2=NCCN12.Cl` [5-methyl-7-chloro-2,3-dihydroimidazo[1,2-c]pyrimidine hydrochloride] the “Final Score” value ([1]; vehicle C, 2.5 % conc., top score +16) was 7.9, the “Final Score” value ([1]; vehicle D, 2.0 % conc., top score +16) was 6.13 and the “Final Score” value ([1]; vehicle R, 2.0 % conc., top score +16, hydrochloride) was 3.17 and 3.57. For the same compound, the “Final Score” value ([2]; vehicle B, 1.0 % conc.) was 2.06, the “Final Score” value ([2]; vehicle D, 1.0 % conc.) was 1.56 and the “Final Score” value ([2]; vehicle K, 1.0 % conc.) was 1.95. For the same compound, the “Final Score” value ([2]; vehicle R, 1.0 % conc.) was 1.81, the “PERCENT INHIBITION OF PLAQUES AT 50 mcg/ml” value (Herpes simplex virus; [8]) was 82% and the inhibition at 6 µg/mL (Herpes simplex virus; [3]) was 0%. The inhibition at 12 µg/mL (Herpes simplex virus; [4]) was 0% and the inhibition at 50 µg/mL (Herpes simplex virus; 72 h, 72 hours at 37° C.) was 85%.

With `CCCCCC1=NC(Cl)=CC2=NCCN21` [5-n-Amyl-7-chloro-2,3-dihydroimidazo[1,2-c]pyrimidine hydrochloride] the inhibition at 3 µg/mL (Herpes simplex virus; [6]) was 0%, the inhibition at 6 µg/mL (Herpes simplex virus; [3]) was 0% and the inhibition at 50 µg/mL (Herpes simplex virus; 72 h, 72 hours at 37° C.) was 100%.

With `CC1=NC(Cl)=CC2=NCC(c3ccccc3)N12` (racemic) [dl-3-phenyl-5-methyl-7-chloro-2,3-dihydroimidazo[1,2-c]pyrimidine hydrochloride] the “Final Score” value ([2]; vehicle D, 2.5 % conc.) was 1.72, the “PERCENT INHIBITION OF PLAQUES AT 25 mcg/ml” value (Herpes simplex virus; [9]) was 68% and the “PERCENT INHIBITION OF PLAQUES AT 50 mcg/ml” value (Herpes simplex virus; [8]) was 95%. It also gave an inhibition at 3 µg/mL (Herpes simplex virus; [6]) of 0%, an inhibition at 6 µg/mL (Herpes simplex virus; [3]) of 0% and an inhibition at 25 µg/mL (Herpes simplex virus; [5]) of 78%. The inhibition at 50 µg/mL (Herpes simplex virus; 72 h, 72 hours at 37° C.) was 100%.

With `CCC1=NC(Cl)=CC2=NCCN21.Cl` [5-Ethyl-7-chloro-2,3-dihydroimidazo[1,2-c]pyrimidine hydrochloride] the “Final Score” value [1, 7] was 2.83, the “Final Score” value ([2]; vehicle D, 1.0 % conc.) was 1.09 and the “Final Score” value ([2]; vehicle D, 1.5 % conc.) was 1.53. For the same compound, the “Final Score” value ([2]; vehicle D, 2.5 % conc.) was 1.60, the “PERCENT INHIBITION OF PLAQUES AT 25 mcg/ml” value (Herpes simplex virus; [9]) was 33% and the “PERCENT INHIBITION OF PLAQUES AT 50 mcg/ml” value (Herpes simplex virus; [8]) was 76%. The inhibition at 3 µg/mL (Herpes simplex virus; [6]) was 0%, the inhibition at 25 µg/mL (Herpes simplex virus; [5]) was 50% and the inhibition at 100 µg/mL (Herpes simplex virus; 72 h, 72 hours at 37° C.) was 100%.

Work on `CC1=NC(N2CCCC2)=CC2=NCCN12` [5-methyl-7-pyrrolidino-2,3-dihydroimidazo[1,2-c]pyrimidine hydrochloride] yielded an inhibition at 3 µg/mL (Herpes simplex virus; [6]) of 0%, an inhibition at 6 µg/mL (Herpes simplex virus; [3]) of 0% and an inhibition at 12 µg/mL (Herpes simplex virus; [4]) of 0%. For the same compound, the inhibition at 25 µg/mL (Herpes simplex virus; [5]) was 0%, the inhibition at 50 µg/mL (Herpes simplex virus; 72 h, 72 hours at 37° C.) was 0% and the inhibition at 100 µg/mL (Herpes simplex virus; 72 h, 72 hours at 37° C.) was 7%.

`CC1=NC(Cl)=CC2=NC(c3ccccc3)CN12.Cl` (racemic) [2-phenyl-5-methyl-7-chloro-2,3-dihydroimidazo[1,2-c]pyrimidine hydrochloride] was tested, and the “PERCENT INHIBITION OF PLAQUES AT 12 mcg/ml” value (Herpes simplex virus; 12 mcg/ml, 72 hours at 37° C., hydrochloride) was 50%, the “PERCENT INHIBITION OF PLAQUES AT 25 mcg/ml” value (Herpes simplex virus; [9]) was 83% and the “PERCENT INHIBITION OF PLAQUES AT 50 mcg/ml” value (Herpes simplex virus; [8]) was 89%. It also gave an inhibition at 3 µg/mL (Herpes simplex virus; [6]) of 0%, an inhibition at 12 µg/mL (Herpes simplex virus; [4]) of 41% and an inhibition at 25 µg/mL (Herpes simplex virus; [5]) of 87%. The inhibition at 50 µg/mL (Herpes simplex virus; 72 h, 72 hours at 37° C.) was 100%.

`CC1=NC(Cl)=CC2=NCC(C)N12` (racemic) [dl-3,5-dimethyl-7-chloro-2,3-dihydroimidazo[1,2-c]pyrimidine hydrochloride] was tested, and the inhibition at 6 µg/mL (Herpes simplex virus; [3]) was 0%, the inhibition at 12 µg/mL (Herpes simplex virus; [4]) was 0% and the inhibition at 25 µg/mL (Herpes simplex virus; [5]) was 12%. For the same compound, the inhibition at 50 µg/mL (Herpes simplex virus; 72 h, 72 hours at 37° C.) was 74%.

`CSC1=NC(Cl)=CC2=NCCN21.Cl` [5-Methylthio-7-chloro-2,3-dihydroimidazo[1,2-c]pyrimidine hydrochloride] was tested, and the “Final Score” value ([1]; vehicle D, 2.5 % conc., top score +16) was 3.81, the “Final Score” value [1, 7] was “.92” and the “Final Score” value ([2]; vehicle R, 2.5 % conc.) was 2.00. For the same compound, the “PERCENT INHIBITION OF PLAQUES AT 6 mcg/ml” value (Herpes simplex virus; 6 mcg/ml, 72 hours at 37° C., hydrochloride) was 48%, the inhibition at 3 µg/mL (Herpes simplex virus; [6]) was 30% and the inhibition at 6 µg/mL (Herpes simplex virus; [3]) was 49%. For the same compound, the inhibition at 12 µg/mL (Herpes simplex virus; [4]) was 100%.

Work on `CNC1=CC2=NCCN2C(C)=N1` [5-methyl-7-methylamino-2,3-dihydroimidazo[1,2-c]pyrimidine dihydrochloride] yielded an inhibition at 6 µg/mL (Herpes simplex virus; [3]) of 0%, an inhibition at 12 µg/mL (Herpes simplex virus; [4]) of 0% and an inhibition at 25 µg/mL (Herpes simplex virus; [5]) of 27%. It also gave an inhibition at 50 µg/mL (Herpes simplex virus; 72 h, 72 hours at 37° C.) of 18% and an inhibition at 100 µg/mL (Herpes simplex virus; 72 h, 72 hours at 37° C.) of 30%.

In the case of `CSC1=NC(Cl)=C(c2ccccc2)C2=NCCN12.Cl` [5-Methylthio-7-chloro-8-phenyl-2,3-dihydroimidazo[1,2-c]pyrimidine hydrochloride], the “Final Score” value ([2]; vehicle D, 2.5 % conc.) was 1.97 and the “PERCENT INHIBITION OF PLAQUES AT 3 mcg/ml” value (Herpes simplex virus; 3 mcg/ml, 72 hours at 37° C., hydrochloride) was 100% and 58%.
